From ChEMBL document CHEMBL4308841, “Synthesis, in vitro antiproliferative activity, and kinase inhibitory effects of pyrazole-containing diarylureas and diarylamides” (Eur J Med Chem, 2018)
pIC50: −log10 of the molar value.

Tests used:
SW-620 [1] = test: Growth inhibition of human SW620 cells assessed as cell growth at 1 uM incubated for 48 hrs by sulforhodamine B assay relative to control; assay type: functional; conditions: SW-620, 48 h, read-out: Activity
Malme-3M = test: Growth inhibition of human MALME-3M cells incubated for 48 hrs by sulforhodamine B assay; assay type: functional, cell-based
NCI-H522 = test: Growth inhibition of human NCI-H522 cells incubated for 48 hrs by sulforhodamine B assay; assay type: functional, cell-based; conditions: NCI-H522, 48 h
SF-539 = test: Growth inhibition of human SF539 cells assessed as cell growth at 0.1 uM incubated for 48 hrs by sulforhodamine B assay relative to control; assay type: functional; conditions: SF-539, 48 h, read-out: Activity
OVCAR-8 = test: Growth inhibition of human OVCAR8 cells incubated for 48 hrs by sulforhodamine B assay; assay type: functional, cell-based; conditions: OVCAR-8, 48 h
CAKI-1 [2] = test: Growth inhibition of human Caki1 cells assessed as cell growth at 100 uM incubated for 48 hrs by sulforhodamine B assay relative to control; assay type: functional; conditions: CAKI-1, 48 h, read-out: Activity
U-251 [3] = test: Growth inhibition of human U251 cells assessed as cell growth at 1 uM incubated for 48 hrs by sulforhodamine B assay relative to control; assay type: functional; conditions: U-251, 48 h, read-out: Activity
CAKI-1 [4] = test: Growth inhibition of human Caki1 cells assessed as cell growth at 0.01 uM incubated for 48 hrs by sulforhodamine B assay relative to control; assay type: functional; conditions: CAKI-1, 48 h, read-out: Activity
BT-549 [5] = test: Growth inhibition of human BT549 cells assessed as cell growth at 100 uM incubated for 48 hrs by sulforhodamine B assay relative to control; assay type: functional; conditions: BT-549, 48 h, read-out: Activity
HCT-15 [6] = test: Growth inhibition of human HCT15 cells assessed as cell growth at 1 uM incubated for 48 hrs by sulforhodamine B assay relative to control; assay type: functional; conditions: HCT-15, 48 h, read-out: Activity
UO-31 = test: Growth inhibition of human UO31 cells assessed as cell growth at 0.01 uM incubated for 48 hrs by sulforhodamine B assay relative to control; assay type: functional; conditions: UO-31, 48 h, read-out: Activity
NCI/ADR-RES [7] = test: Growth inhibition of human NCI/ADR-RES cells incubated for 48 hrs by sulforhodamine B assay; assay type: functional, cell-based
SK-MEL-28 = test: Growth inhibition of human SK-MEL-28 cells assessed as cell growth at 0.01 uM incubated for 48 hrs by sulforhodamine B assay relative to control; assay type: functional; conditions: SK-MEL-28, 48 h, read-out: Activity
NCI-H460 [8] = test: Growth inhibition of human NCI-H460 cells assessed as cell growth at 1 uM incubated for 48 hrs by sulforhodamine B assay relative to control; assay type: functional; conditions: NCI-H460, 48 h, read-out: Activity
MDA-MB-435 = test: Growth inhibition of human MDA-MB-435 cells assessed as cell growth at 0.1 uM incubated for 48 hrs by sulforhodamine B assay relative to control; assay type: functional; conditions: MDA-MB-435, 48 h, read-out: Activity
HCT-116 [9] = test: Growth inhibition of human HCT116 cells assessed as cell growth at 1 uM incubated for 48 hrs by sulforhodamine B assay relative to control; assay type: functional; conditions: HCT-116, 48 h, read-out: Activity
SR = test: Growth inhibition of human SR cells assessed as cell growth at 0.1 uM incubated for 48 hrs by sulforhodamine B assay relative to control; assay type: functional; conditions: read-out: Activity
KM12 = test: Growth inhibition of human KM12 cells assessed as cell growth at 100 uM incubated for 48 hrs by sulforhodamine B assay relative to control; assay type: functional; conditions: KM12, 48 h, read-out: Activity
RPMI-8226 = test: Growth inhibition of human RPMI8226 cells incubated for 48 hrs by sulforhodamine B assay; assay type: functional, cell-based; conditions: RPMI-8226, 48 h
Hs-578T = test: Growth inhibition of human Hs578T cells assessed as cell growth at 0.01 uM incubated for 48 hrs by sulforhodamine B assay relative to control; assay type: functional; conditions: read-out: Activity
T47D = test: Growth inhibition of human T47D cells assessed as cell growth at 100 uM incubated for 48 hrs by sulforhodamine B assay relative to control; assay type: functional; conditions: read-out: Activity
MOLT-4 = test: Growth inhibition of human MOLT4 cells assessed as cell growth at 0.1 uM incubated for 48 hrs by sulforhodamine B assay relative to control; assay type: functional; conditions: MOLT-4, 48 h, read-out: Activity
HCT-116 [10] = test: Growth inhibition of human HCT116 cells assessed as cell growth at 100 uM incubated for 48 hrs by sulforhodamine B assay relative to control; assay type: functional; conditions: HCT-116, 48 h, read-out: Activity
A498 = test: Growth inhibition of human A498 cells assessed as cell growth at 0.1 uM incubated for 48 hrs by sulforhodamine B assay relative to control; assay type: functional; conditions: A498, 48 h, read-out: Activity
HCT-15 [11] = test: Growth inhibition of human HCT15 cells assessed as cell growth at 0.01 uM incubated for 48 hrs by sulforhodamine B assay relative to control; assay type: functional; conditions: HCT-15, 48 h, read-out: Activity
U-251 [12] = test: Growth inhibition of human U251 cells assessed as cell growth at 0.01 uM incubated for 48 hrs by sulforhodamine B assay relative to control; assay type: functional; conditions: U-251, 48 h, read-out: Activity
NCI/ADR-RES [13] = test: Growth inhibition of human NCI/ADR-RES cells assessed as cell growth at 0.01 uM incubated for 48 hrs by sulforhodamine B assay relative to control; assay type: functional; conditions: read-out: Activity
SW-620 [14] = test: Growth inhibition of human SW620 cells assessed as cell growth at 100 uM incubated for 48 hrs by sulforhodamine B assay relative to control; assay type: functional; conditions: SW-620, 48 h, read-out: Activity
BT-549 [15] = test: Growth inhibition of human BT549 cells assessed as cell growth at 1 uM incubated for 48 hrs by sulforhodamine B assay relative to control; assay type: functional; conditions: BT-549, 48 h, read-out: Activity
ACHN = test: Growth inhibition of human ACHN cells assessed as cell growth at 100 uM incubated for 48 hrs by sulforhodamine B assay relative to control; assay type: functional; conditions: read-out: Activity
M14 = test: Growth inhibition of human M14 cells assessed as cell growth at 1 uM incubated for 48 hrs by sulforhodamine B assay relative to control; assay type: functional; conditions: M14, 48 h, read-out: Activity
NCI-H460 [16] = test: Growth inhibition of human NCI-H460 cells assessed as cell growth at 0.01 uM incubated for 48 hrs by sulforhodamine B assay relative to control; assay type: functional; conditions: NCI-H460, 48 h, read-out: Activity
[17] = read-out: LC50 (the source's name)
[18] = read-out: pLC50 (the source's name) (converted)

## COc1cc(Cl)cc(-c2nn(-c3cccc(NC(=O)Nc4ccc(Cl)c(C(F)(F)F)c4)c3)cc2-c2ccncc2)c1
SW-620 [1]
  growth at 1 µM: 63%
Malme-3M; read-out: GI50
  GI50: 1.21 µM
Malme-3M; [17]
  CC50: > 100 µM
Malme-3M; read-out: TGI
  TGI: 85 µM
Malme-3M; read-out: pGI50 (converted)
  GI50: 1.7 µM
Malme-3M; [18]
  CC50: > 100 µM
Malme-3M; read-out: pTGI (converted)
  TGI: 3.16 µM
NCI-H522; read-out: GI50
  GI50: 0.418 µM
NCI-H522; [17]
  CC50: 9.74 µM
NCI-H522; read-out: TGI
  TGI: 25 µM
NCI-H522; read-out: pGI50 (converted)
  GI50: 0.417 µM
NCI-H522; [18]
  CC50: 9.77 µM
NCI-H522; read-out: pTGI (converted)
  TGI: 2.51 µM
SF-539
  growth at 0.1 µM: 91%
OVCAR-8; read-out: GI50
  GI50: 0.739 µM
OVCAR-8; [17]
  CC50: > 100 µM
OVCAR-8; read-out: TGI
  TGI: 59.3 µM
OVCAR-8; read-out: pGI50 (converted)
  GI50: 0.741 µM
OVCAR-8; [18]
  CC50: > 100 µM
OVCAR-8; read-out: pTGI (converted)
  TGI: 7.08 µM
CAKI-1 [2]
  growth at 100 µM: -40%
U-251 [3]
  growth at 1 µM: 43%
CAKI-1 [4]
  growth at 0.01 µM: 98%
BT-549 [5]
  growth at 100 µM: -68%
HCT-15 [6]
  growth at 1 µM: 35%
UO-31
  growth at 0.01 µM: 91%
NCI/ADR-RES [7]; read-out: GI50
  GI50: 1.77 µM
NCI/ADR-RES [7]; [17]
  CC50: > 100 µM
NCI/ADR-RES [7]; read-out: TGI
  TGI: 11.5 µM
NCI/ADR-RES [7]; read-out: pGI50 (converted)
  GI50: 1.78 µM
NCI/ADR-RES [7]; [18]
  CC50: > 100 µM
NCI/ADR-RES [7]; read-out: pTGI (converted)
  TGI: 5.89 µM
SK-MEL-28
  growth at 0.01 µM: 98%
NCI-H460 [8]
  growth at 1 µM: 43%
MDA-MB-435
  growth at 0.1 µM: 93%
HCT-116 [9]
  growth at 1 µM: 38%
SR
  growth at 0.1 µM: 92%
KM12
  growth at 100 µM: -70%
RPMI-8226
  pIC50: 6.40
RPMI-8226; read-out: GI50
  GI50: 0.402 µM
RPMI-8226; [17]
  CC50: > 100 µM
RPMI-8226; read-out: TGI
  TGI: 20.7 µM
RPMI-8226; read-out: pGI50 (converted)
  GI50: 0.398 µM
RPMI-8226; [18]
  CC50: > 100 µM
RPMI-8226; read-out: pTGI (converted)
  TGI: 2.09 µM
Hs-578T
  growth at 0.01 µM: 95%
T47D
  growth at 100 µM: -18%
MOLT-4
  growth at 0.1 µM: 57%
HCT-116 [10]
  growth at 100 µM: -94%
A498
  growth at 0.1 µM: 59%
HCT-15 [11]
  growth at 0.01 µM: 92%
U-251 [12]
  growth at 0.01 µM: 98%
NCI/ADR-RES [13]
  growth at 0.01 µM: 98%
SW-620 [14]
  growth at 100 µM: -58%
BT-549 [15]
  growth at 1 µM: 92%
ACHN
  growth at 100 µM: -31%
M14
  growth at 1 µM: 65%
NCI-H460 [16]
  growth at 0.01 µM: 100%
